Measurements taken from US4910012A, “Products containing Tc-99-m-ωalkylphosphinico-1-hydroxyalkane-1,1-diphosphonates for bone scintigraphy and a process for the preparation of these products” (Hoechst Aktiengesellschaft, priority 1988, dated 1990).

How the values were obtained:
[1] = Organ distribution of Tc-99m-HMPD in the rat 2 h after injection as a function of the amount administered (Table 3); assay type: in vivo; details: for Bladder + urine / Blood / Bone / Kidneys / Liver / Lung / Muscle / Stomach / Thyroid: i.v., 2 h
Description: The product prepared as in Example 2 (pH=7) was used for the following experiment.
Organ distribution of Tc-99m-HMPD in the rat
(n = 3) 2 h after injection as a function of
the amount administered (mg) and as a % of the
injected dose per organ or tissue. The various
HMPD amounts were administered i.v. in 0.1 ml

osteosarcoma = experiment: Scintigraphy in osteosarcoma model, ratio (Q) of count density in the tumor to that in the contralateral tibia; assay type: in vivo, Sprague-Dawley rats; details: 0.01 mg i.v., 9.25 MBq Tc-99m, 4 weeks after tumor implantation
Description: Tc-99m-HMPD was tested on the model of osteosarcoma in Sprague-Dawley rats. […] The investigation was carried out 4 weeks after tumor implantation on a total of 30 animals. 1. Investigation schedule:
Day 1 Tc-99m-MDP (reference substance)
Scintigraphy 1, 90 and 180 minutes after injection
Storage of the scintigraphic data for the evaluation 2. Evaluation
Measurement of whole-body activity from the scintigraphic data
Ratio (Q) of the count density per unit area in the tumor to that in the contralateral tibia
Comparison of the quotient QHMPD with that for the products QMDP and QDBA-MDP.

[2] = Stability of Tc-99m-HMPD by gel chromatography on polyacrylamide gel (Bio Gel P-10), up to 24 h after preparation; assay type: physicochemical; details: for % Activity in the HMPD: eluent 0.9% NaCl
Description: The labeling yield of Tc-99m-HMPD was determined, and the purity and stability were tested, by thin-layer chromatographic methods, gel filtration and HPLC.
2. The stability for a period of up to 24 h after preparation was tested by gel chromatography on polyacrylamide gel (Bio Gel® P-10, manufactured by Bio-Rad, California, USA) using 0.9% NaC1 solution as eluent (FIG. 1). The proportion of the activity in the HMPD, that in the form of pertechnetate and that remaining on the column were measured (Table 1). The latter is greater than the proportion of ^99m -Tc^4+ because non-specific adsorption of technetium to the support material is always observed.

lesion / normal bone = experiment: Ratio Q of Tc-99m uptake in a lesion to uptake in normal bone (own investigations); assay type: in vivo; details: compared with A-EDP, DMA-MDP, EA-MDP, DEA-MDP; Q=(% Tc/g of lesion)/(% Tc/g of normal bone)
Source text: Many investigations carried out to date have been devoted to the search for compounds having a more favorable uptake ratio between the lesion and normal skeleton.

bone lesions = details: compared with DPD and MDP; cited from earlier work
[3] = in words, cited from earlier work

**Q.** Which “Bladder + urine” value ([1]; 0.001 mg) does the source give for “1-hydroxy-3-methylphosphinico-1,1-propanediphosphonic acid [Tc-99m-HMPD]” here?
**A.** Its value is 54.1 % of the injected dose per org.

**Q.** What about the Blood ([1]; 0.001 mg) of the same molecule?
**A.** Its Blood is 0.7 % of the injected dose per org.

**Q.** What about the Bone ([1]; 0.001 mg) of the same molecule?
**A.** The Bone was 32.9 % of the injected dose per org.

**Q.** And the Kidneys ([1]; 0.001 mg)?
**A.** Its Kidneys is 1.51 % of the injected dose per org.

**Q.** And the Liver ([1]; 0.001 mg)?
**A.** The Liver was 0.27 % of the injected dose per org.

**Q.** What about the Lung ([1]; 0.001 mg) of the same molecule?
**A.** The Lung was 0.080 % of the injected dose per org.

**Q.** And the Muscle ([1]; 0.001 mg)?
**A.** Its Muscle is 0.8 % of the injected dose per org.

**Q.** And the Stomach ([1]; 0.001 mg)?
**A.** The Stomach was 0.151 % of the injected dose per org.

**Q.** And the Thyroid ([1]; 0.001 mg)?
**A.** The Thyroid was 0.008 % of the injected dose per org.

**Q.** What about the “Bladder + urine” value ([1]; 0.01 mg) of the same molecule?
**A.** The value was 55.6 % of the injected dose per org.

**Q.** What about the Blood ([1]; 0.01 mg) of the same molecule?
**A.** The Blood was 0.4 % of the injected dose per org.

**Q.** And the Bone ([1]; 0.01 mg)?
**A.** The Bone was 34.7 % of the injected dose per org.

**Q.** What about the Kidneys ([1]; 0.01 mg) of the same molecule?
**A.** Its Kidneys is 1.05 % of the injected dose per org.

**Q.** And the Liver ([1]; 0.01 mg)?
**A.** Its Liver is 0.18 % of the injected dose per org.

**Q.** What about the Lung ([1]; 0.01 mg) of the same molecule?
**A.** The Lung was 0.048 % of the injected dose per org.

**Q.** And the Muscle ([1]; 0.01 mg)?
**A.** Its Muscle is 0.6 % of the injected dose per org.

**Q.** What about the Stomach ([1]; 0.01 mg) of the same molecule?
**A.** The Stomach was 0.091 % of the injected dose per org.

**Q.** What about the Thyroid ([1]; 0.01 mg) of the same molecule?
**A.** The Thyroid was 0.008 % of the injected dose per org.

**Q.** And the “Bladder + urine” value ([1]; 0.1 mg)?
**A.** Its value is 56.9 % of the injected dose per org.

**Q.** What about the Blood ([1]; 0.1 mg) of the same molecule?
**A.** Its Blood is 0.4 % of the injected dose per org.

**Q.** And the Bone ([1]; 0.1 mg)?
**A.** Its Bone is 32.6 % of the injected dose per org.

**Q.** What about the Kidneys ([1]; 0.1 mg) of the same molecule?
**A.** Its Kidneys is 0.94 % of the injected dose per org.

**Q.** What about the Liver ([1]; 0.1 mg) of the same molecule?
**A.** Its Liver is 0.17 % of the injected dose per org.

**Q.** What about the Lung ([1]; 0.1 mg) of the same molecule?
**A.** Its Lung is 0.480 % of the injected dose per org.

**Q.** And the Muscle ([1]; 0.1 mg)?
**A.** Its Muscle is 0.6 % of the injected dose per org.

**Q.** And the Stomach ([1]; 0.1 mg)?
**A.** Its Stomach is 0.092 % of the injected dose per org.

**Q.** What about the Thyroid ([1]; 0.1 mg) of the same molecule?
**A.** The Thyroid was 0.011 % of the injected dose per org.

**Q.** And the “Bladder + urine” value ([1]; 1 mg)?
**A.** The value was 59.1 % of the injected dose per org.

**Q.** And the Blood ([1]; 1 mg)?
**A.** Its Blood is 0.8 % of the injected dose per org.

**Q.** And the Bone ([1]; 1 mg)?
**A.** The Bone was 28.7 % of the injected dose per org.

**Q.** And the Kidneys ([1]; 1 mg)?
**A.** Its Kidneys is 1.03 % of the injected dose per org.

**Q.** And the Liver ([1]; 1 mg)?
**A.** The Liver was 0.22 % of the injected dose per org.

**Q.** And the Lung ([1]; 1 mg)?
**A.** The Lung was 0.079 % of the injected dose per org.

**Q.** And the Muscle ([1]; 1 mg)?
**A.** The Muscle was 1.1 % of the injected dose per org.

**Q.** And the Stomach ([1]; 1 mg)?
**A.** Its Stomach is 0.090 % of the injected dose per org.

**Q.** And the Thyroid ([1]; 1 mg)?
**A.** Its Thyroid is 0.007 % of the injected dose per org.

**Q.** And the “liver uptake with larger administered amounts” value ([1]; in words)?
**A.** The value was “no increase in liver uptake at the expense of skeletal accumulation”.

**Q.** What about the “Lesion quotient (Q)” value (osteosarcoma) of the same molecule?
**A.** The value was 1.27.

**Q.** And the “% Tc-99m Residue on the column” value ([2]; 5 min after preparation)?
**A.** Its value is 6.8%.

**Q.** And the “% Tc-99m as pertechnetate” value ([2]; 5 min after preparation)?
**A.** Its value is 0.6%.

**Q.** And the “% Activity in the HMPD” value ([2]; 5 min after preparation)?
**A.** The value was 92.6%.

**Q.** What about the “% Tc-99m Residue on the column” value ([2]; 2 h after preparation) of the same molecule?
**A.** Its value is 7.5%.

**Q.** What about the “% Tc-99m as pertechnetate” value ([2]; 2 h after preparation) of the same molecule?
**A.** The value was 0.4%.

**Q.** What about the “% Activity in the HMPD” value ([2]; 2 h after preparation) of the same molecule?
**A.** Its value is 92.1%.

**Q.** And the “% Tc-99m Residue on the column” value ([2]; 7 h after preparation)?
**A.** Its value is 4.6%.

**Q.** And the “% Tc-99m as pertechnetate” value ([2]; 7 h after preparation)?
**A.** Its value is 0.4%.

**Q.** What about the “% Activity in the HMPD” value ([2]; 7 h after preparation) of the same molecule?
**A.** Its value is 95.0%.

**Q.** What about the “% Tc-99m Residue on the column” value ([2]; 24 h after preparation) of the same molecule?
**A.** The value was 5.2%.

**Q.** And the “% Tc-99m as pertechnetate” value ([2]; 24 h after preparation)?
**A.** Its value is 0.8%.

**Q.** And the “% Activity in the HMPD” value ([2]; 24 h after preparation)?
**A.** The value was 94.0%.

**Q.** What about the product stability ([2]; summary in words) of the same molecule?
**A.** Its product stability is “stable for a whole working day”.

**Q.** And the “proportion of Tc-99m activity present in the HMPD” value ([2]; up to 24 h after preparation)?
**A.** The value was “more than 90%”.

**Q.** For `CCCCN(CCCC)C(P(=O)(O)O)P(=O)(O)O` [DBA-MDP, N,N-dibutylaminomethanediphosphonic acid], which “ratio Q for uptake of Tc-99m in a lesion vs normal bone” value (lesion / normal bone) is on record?
**A.** The value was “by far the highest ratios Q”.

**Q.** And the “Lesion quotient (Q)” value (osteosarcoma)?
**A.** Its value is 1.16.

**Q.** What about the “accumulation in the lesions” value (bone lesions) of the same molecule?
**A.** The value was “distinctly higher”.

**Q.** What about the blood clearance ([3]; current state of knowledge) of the same molecule?
**A.** Its blood clearance is “not optimal”.

**Q.** And the bone/background ratio [3]?
**A.** The bone/background ratio was “relatively poor”.

**Q.** Which “Lesion quotient (Q)” value (osteosarcoma) does the source give for `O=P(O)(O)CP(=O)(O)O` [MDP, methanediphosphonic acid] here?
**A.** Its value is 1.0.
